The nature of data set [1]: Plasma stability, human plasma. Format: in vitro ADME. The note with it: 37° C., time points 0 minute, 1, 2 and 4 hours, LC-MS/MS, read-out: Human plasma (T1/2 (h)) (converted). How it is done:
(§1) 1. Preparation of 50 mM Phosphate Buffer (50 mM Sodium Phosphate and 70 mM NaCl):
(§2) 5.750 g of Na2HPO4, 1.141 g of NaH2PO4 and 4.095 g of NaCl (Shanghai Titan) were weighed and dissolved in 1000 mL of ultrapure water and the pH was adjusted to 7.4. The prepared phosphate buffer was stored in the refrigerator at 4° C., valid for one week.
(§3) 2. Preparation of Compound Stock Solution:
(§4) 1) 5 mg/mL test compound: 5 mg of compound was weighed and dissolved in 1 mL of DMSO.
(§5) 2) 20 mM control: 2.728 mg of nococaine was dissolved in 0.5 mL of DMSO. 3.878 mg of fenfluramide was dissolved in 0.5 mL of DMSO (Amresco).
(§6) 3. Preparation of Experimental Plasma:
(§7) The frozen plasma (human: Shanghai ChemPartner, Rat, Mouse: Shanghai Xipuer-Beikai, Dog, Monkey: Suzhou Xishan Zhongke) was taken out from the −80° C. refrigerator, immediately placed in a 37° C. water bath, and thawn with gentle shaking. The thawed plasma was poured into a centrifuge tube, and centrifuged at 3000 rpm for 8 minutes. The supernatant was collected for the experiment. The pH of the plasma was measured with a pH meter (METTLER TOLEDO), and only the plasma with a pH between 7.4 and 8 was used for the experiment. The plasma was placed on an ice bath for later use.
(§8) 4. Preparation of the Dosing Solution:
(§9) 1) 125 μg/mL test compound solution: 5 μL of 5 mg/mL test compound (see step 2) was added to 195 μL DMSO; 500 μM control solution: 20 mM control stock solution (see step 2) was added to 195 μL DMSO.
(§10) 2) 0.5% BSA phosphate buffer solution: 0.05 g of BSA was added to 10 mL of phosphate buffer (see step 1).
(§11) 3) 5 μg/mL test compound dosing solution: 40 μL of 125 μg/mL test compound solution was added to 960 μL of 0.5% BSA phosphate buffer solution, shaken and mixed evenly, and the dosing solution was placed in a 37° C. water bath and preheated for 5 minutes.
(§12) 20 μM control dosing solution: 40 μL of 500 μM control solution was added to 960 μL of 0.5% BSA phosphate buffer solution, shaken and mixed evenly, and the dosing solution was placed in a 37° C. water bath and preheated for 5 minutes.
(§13) 5. 10 μL of 5 μg/mL test compound and 20 μM control solution were added to the wells of the 96-well plate set at different time points (0 minute, 1 hour, 2 hours and 4 hours). The number of duplicate samples was 3.
(§14) 6. 500 μL of ACN (IS) containing 5% FA was added to the wells set at 0 minute. 90 μL of plasma was then added thereto, mixed evenly, sealed with the film and stored at 4° C. (the number of duplicates was 3).
(§15) 7. 90 μL of plasma was added to the wells set at 1 hour, 2 hours and 4 hours (the number of replicates was 3), followed by timing (the final concentration of the test compound was 500 ng/mL, and that of the control was 2 μM).
(§16) 9. All samples (0 minutes, 1 hour, 2 hours, and 4 hours) at different time points on the 96-well plate were placed on a shaker (IKA, MTS 2/4) and shaken at 600 rpm for 60 minutes. The samples were then centrifuged for 15 minutes on a centrifuge machine (Thermo Multifuge×3R) at 5594×g.
(§17) 10. 150 μL of the supernatant was taken out from the centrifuged sample and sent to LC-MS/MS for analysis (conventional peptide LC-MS/MS analysis).

The target in data set [2] is T1, human Chemokine like receptor 1 (Homo sapiens, UniProt Q99788).
T1 construct: host or cells: U2OS (Tango CMKLR1-bla U2OS)
T1 sequence (Q99788 1-373): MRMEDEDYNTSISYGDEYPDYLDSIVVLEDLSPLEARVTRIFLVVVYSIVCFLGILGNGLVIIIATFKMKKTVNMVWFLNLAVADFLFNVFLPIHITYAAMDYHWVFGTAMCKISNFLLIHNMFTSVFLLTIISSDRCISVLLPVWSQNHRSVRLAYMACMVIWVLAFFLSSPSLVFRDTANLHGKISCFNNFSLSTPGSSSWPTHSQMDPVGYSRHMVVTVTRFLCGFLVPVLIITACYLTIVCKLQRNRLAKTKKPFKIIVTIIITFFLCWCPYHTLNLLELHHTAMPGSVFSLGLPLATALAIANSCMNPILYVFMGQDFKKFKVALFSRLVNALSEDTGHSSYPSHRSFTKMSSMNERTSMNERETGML
Briefly: Activation of Tango CMKLR1-bla U2OS cells (beta-lactamase FRET reporter). Format: cell-based. An outline of the steps:
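Agonist mode in Tango CMKLR1-bla U2OS cells, 10000 cells/well seeded overnight, then 10-point 3-fold compound dilutions from 10 mM DMSO stock applied for 4 h at 37 °C, 5% CO2. Beta-lactamase reporter read with CCF4-AM FRET substrate; peptide (D-Tyr)-Phe-Leu-Pro-(D-Ser)-Gln-Phe-(D-Ala)-Tic-Ser served as positive control.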

A short description of data set [3]: Plasma stability, mouse plasma. It counts as in vitro ADME. Particulars: 37° C., 0-4 hours, LC-MS/MS, "Very long" = no significant degradation found in the test (4 hours); for Mouse plasma (T1/2 (h)): 500 ng/mL; for half-life at 500 ng/mL: read-out: Mouse plasma (T1/2 (h)) (converted). How it is done:
as §1, §2, §3, §4, §5, §6, §7, §8, §9, §10, §11, §12, §13, §14, §15, §16, §17

The mark [4] stands for this setting: determination by the method of Effect Embodiment 1, read-out: EC50.

Molecules are shown by their SMILES. Like-named read-outs stand apart in the source and are kept apart here. Square brackets hold non-standard residues; d marks the D form. Peptide text beside a SMILES is read from it. * marks the point of attachment. PEG8 = NCCOCCOCCOCCOCCOCCOCCOCCOCCC(=O)O; 2Nal = N[C@@H](Cc1ccc2ccccc2c1)C(=O)O; dNMeY = CN[C@H](Cc1ccc(O)cc1)C(=O)O; Palmitoyl = CCCCCCCCCCCCCCCC(=O)*; Tic = O=C(O)[C@@H]1Cc2ccccc2CN1; NMeL = CN[C@@H](CC(C)C)C(=O)O; NMeS = CN[C@@H](CO)C(=O)O; Thz = O=C(O)[C@@H]1CSCN1; βAla = NCCC(=O)O

Take `CC(C)C[C@@H](C(=O)N1CSC[C@H]1C(=O)N[C@H](CO)C(=O)N[C@@H](CCC(N)=O)C(=O)N[C@@H](Cc1ccc2ccccc2c1)C(=O)N[C@H](C)C(=O)N1Cc2ccccc2C[C@H]1C(=O)N[C@@H](CO)C(=O)O)N(C)C(=O)[C@H](Cc1ccccc1)NC(=O)[C@H](N)Cc1ccc(O)cc1` [YW-122, (D-Tyr)-Phe-(NMe-Leu)-Thz-(D-Ser)-Gln-2Nal-(D-Ala)-Tic-Ser-OH] (H-[dY]F[NMeL][Thz][dS]Q[2Nal][dA][Tic]S-OH): the half-life at 500 ng/mL in data set [1] was 79.6 h. In data set [2], this compound came in with an EC50 of 0.6 nM. Also, the “Mouse plasma (T1/2 (h))” value in data set [3] is given as “Very long”.

For the compound `CN[C@H](Cc1ccc(O)cc1)C(=O)N[C@@H](Cc1ccccc1)C(=O)N(C)[C@@H](CC(C)C)C(=O)N1CSC[C@H]1C(=O)N[C@H](CO)C(=O)N[C@@H](CCC(N)=O)C(=O)N[C@@H](Cc1ccc2ccccc2c1)C(=O)N[C@H](C)C(=O)N1Cc2ccccc2C[C@H]1C(=O)N(C)[C@@H](CO)C(=O)O` [YW-125, (D-NMe-Tyr)-Phe-(NMe-Leu)-Thz-(D-Ser)-Gln-2Nal-(D-Ala)-Tic-(NMe-Ser)-OH] (H-[dNMeY]F[NMeL][Thz][dS]Q[2Nal][dA][Tic][NMeS]-OH; N-terminus assumed), the EC50 in data set [2] (setting [4]) came to 0.6 nM. Also, in data set [3], the “Mouse plasma (T1/2 (h))” value is recorded as “Very long”.

Take `CCCCCCCCCCCCCCCC(=O)NCCOCCOCCOCCOCCOCCOCCOCCOCCC(=O)NCC(=O)NCC(=O)N[C@H](Cc1ccc(O)cc1)C(=O)N[C@@H](Cc1ccccc1)C(=O)N(C)[C@@H](CC(C)C)C(=O)N1CCC[C@H]1C(=O)N[C@H](CO)C(=O)N[C@@H](CCC(N)=O)C(=O)N[C@@H](Cc1ccccc1)C(=O)N[C@H](C)C(=O)N1Cc2ccccc2C[C@H]1C(=O)N[C@@H](CO)C(=O)O` [YW-133, Palm-PEG8-Gly-Gly-(D-Tyr)-Phe-(NMe-Leu)-Pro-(D-Ser)-Gln-Phe-(D-Ala)-Tic-Ser-OH] ({Palmitoyl-PEG8}-GG[dY]F[NMeL]P[dS]QF[dA][Tic]S-OH): the results for the half-life at 500 ng/mL in data set [1] and in data set [3] were 13.7 h and 67.1 h, respectively. For the same compound, in data set [2] (setting [4]), the EC50 was 0.7 nM.

Turning to `CCCCCCCCCCCCCCCC(=O)NCCOCCOCCOCCOCCOCCOCCOCCOCCC(=O)NCCC(=O)NCCC(=O)N[C@H](Cc1ccc(O)cc1)C(=O)N[C@@H](Cc1ccccc1)C(=O)N(C)[C@@H](CC(C)C)C(=O)N1CCC[C@H]1C(=O)N[C@H](CO)C(=O)N[C@@H](CCC(N)=O)C(=O)N[C@@H](Cc1ccccc1)C(=O)N[C@H](C)C(=O)N1Cc2ccccc2C[C@H]1C(=O)N[C@@H](CO)C(=O)O` [YW-134, Palm-PEG8-βAla-βAla-(D-Tyr)-Phe-(NMe-Leu)-Pro-(D-Ser)-Gln-Phe-(D-Ala)-Tic-Ser-OH] ({Palmitoyl-PEG8-βAla-βAla}-[dY]F[NMeL]P[dS]QF[dA][Tic]S-OH), the values for the half-life at 500 ng/mL in data set [1] and in data set [3] were 14 h and 11.4 h, respectively. Moreover, the EC50 in data set [2] (setting [4]) was found to be 0.7 nM.

These data come from patent publication US12129312B2, “Peptide compound, application thereof and composition containing same” (priority 2017, dated 2024).
